# From US10800791B2, “Triazole ACC inhibitors and uses thereof” (Gilead Apollo, LLC, priority 2015, dated 2020)
# Where two headings read alike, the source gives them in different places.
# Columns and labels:
# human (hACC2) = human (hACC2) (Homo sapiens, UniProt O00763); assay: In vitro ACC inhibition assay (ADP-Glo), hACC2; format: biochemical; details: 5 nM ACC2, 20 μM ATP, 20 μM acetyl-CoA
# Method: The detailed procedure is as follows. […] 10 μL ADP glo reagent was added. […] 20 μL kinase detection reagent was added.
# Rhizoctonia solani (Rs) = assay: Growth inhibition assay of fungal pathogens, Rs; format: cell-based; details: 48 h
# [1] = mycelial plugs, growth inhibition at 48 hours vs 2% DMSO control, read-out: Concentration at 90% Inhibition Rs
# [2] = mycelial plugs, growth inhibition vs 2% DMSO control at 48 hours, read-out: Concentration at 90% Inhibition Rs
# [3] = read-out: Concentration at 90% Inhibition Rs, Rhizoctonia solani, mycelial plugs, growth inhibition at 48 hours vs 2% DMSO control
# [4] = read-out: Concentration at 90% Inhibition Rs, Rhizoctonia solani, mycelial plugs, growth inhibition vs 2% DMSO control at 48 hours
# human (hACC2), sequence (O00763 whole entry): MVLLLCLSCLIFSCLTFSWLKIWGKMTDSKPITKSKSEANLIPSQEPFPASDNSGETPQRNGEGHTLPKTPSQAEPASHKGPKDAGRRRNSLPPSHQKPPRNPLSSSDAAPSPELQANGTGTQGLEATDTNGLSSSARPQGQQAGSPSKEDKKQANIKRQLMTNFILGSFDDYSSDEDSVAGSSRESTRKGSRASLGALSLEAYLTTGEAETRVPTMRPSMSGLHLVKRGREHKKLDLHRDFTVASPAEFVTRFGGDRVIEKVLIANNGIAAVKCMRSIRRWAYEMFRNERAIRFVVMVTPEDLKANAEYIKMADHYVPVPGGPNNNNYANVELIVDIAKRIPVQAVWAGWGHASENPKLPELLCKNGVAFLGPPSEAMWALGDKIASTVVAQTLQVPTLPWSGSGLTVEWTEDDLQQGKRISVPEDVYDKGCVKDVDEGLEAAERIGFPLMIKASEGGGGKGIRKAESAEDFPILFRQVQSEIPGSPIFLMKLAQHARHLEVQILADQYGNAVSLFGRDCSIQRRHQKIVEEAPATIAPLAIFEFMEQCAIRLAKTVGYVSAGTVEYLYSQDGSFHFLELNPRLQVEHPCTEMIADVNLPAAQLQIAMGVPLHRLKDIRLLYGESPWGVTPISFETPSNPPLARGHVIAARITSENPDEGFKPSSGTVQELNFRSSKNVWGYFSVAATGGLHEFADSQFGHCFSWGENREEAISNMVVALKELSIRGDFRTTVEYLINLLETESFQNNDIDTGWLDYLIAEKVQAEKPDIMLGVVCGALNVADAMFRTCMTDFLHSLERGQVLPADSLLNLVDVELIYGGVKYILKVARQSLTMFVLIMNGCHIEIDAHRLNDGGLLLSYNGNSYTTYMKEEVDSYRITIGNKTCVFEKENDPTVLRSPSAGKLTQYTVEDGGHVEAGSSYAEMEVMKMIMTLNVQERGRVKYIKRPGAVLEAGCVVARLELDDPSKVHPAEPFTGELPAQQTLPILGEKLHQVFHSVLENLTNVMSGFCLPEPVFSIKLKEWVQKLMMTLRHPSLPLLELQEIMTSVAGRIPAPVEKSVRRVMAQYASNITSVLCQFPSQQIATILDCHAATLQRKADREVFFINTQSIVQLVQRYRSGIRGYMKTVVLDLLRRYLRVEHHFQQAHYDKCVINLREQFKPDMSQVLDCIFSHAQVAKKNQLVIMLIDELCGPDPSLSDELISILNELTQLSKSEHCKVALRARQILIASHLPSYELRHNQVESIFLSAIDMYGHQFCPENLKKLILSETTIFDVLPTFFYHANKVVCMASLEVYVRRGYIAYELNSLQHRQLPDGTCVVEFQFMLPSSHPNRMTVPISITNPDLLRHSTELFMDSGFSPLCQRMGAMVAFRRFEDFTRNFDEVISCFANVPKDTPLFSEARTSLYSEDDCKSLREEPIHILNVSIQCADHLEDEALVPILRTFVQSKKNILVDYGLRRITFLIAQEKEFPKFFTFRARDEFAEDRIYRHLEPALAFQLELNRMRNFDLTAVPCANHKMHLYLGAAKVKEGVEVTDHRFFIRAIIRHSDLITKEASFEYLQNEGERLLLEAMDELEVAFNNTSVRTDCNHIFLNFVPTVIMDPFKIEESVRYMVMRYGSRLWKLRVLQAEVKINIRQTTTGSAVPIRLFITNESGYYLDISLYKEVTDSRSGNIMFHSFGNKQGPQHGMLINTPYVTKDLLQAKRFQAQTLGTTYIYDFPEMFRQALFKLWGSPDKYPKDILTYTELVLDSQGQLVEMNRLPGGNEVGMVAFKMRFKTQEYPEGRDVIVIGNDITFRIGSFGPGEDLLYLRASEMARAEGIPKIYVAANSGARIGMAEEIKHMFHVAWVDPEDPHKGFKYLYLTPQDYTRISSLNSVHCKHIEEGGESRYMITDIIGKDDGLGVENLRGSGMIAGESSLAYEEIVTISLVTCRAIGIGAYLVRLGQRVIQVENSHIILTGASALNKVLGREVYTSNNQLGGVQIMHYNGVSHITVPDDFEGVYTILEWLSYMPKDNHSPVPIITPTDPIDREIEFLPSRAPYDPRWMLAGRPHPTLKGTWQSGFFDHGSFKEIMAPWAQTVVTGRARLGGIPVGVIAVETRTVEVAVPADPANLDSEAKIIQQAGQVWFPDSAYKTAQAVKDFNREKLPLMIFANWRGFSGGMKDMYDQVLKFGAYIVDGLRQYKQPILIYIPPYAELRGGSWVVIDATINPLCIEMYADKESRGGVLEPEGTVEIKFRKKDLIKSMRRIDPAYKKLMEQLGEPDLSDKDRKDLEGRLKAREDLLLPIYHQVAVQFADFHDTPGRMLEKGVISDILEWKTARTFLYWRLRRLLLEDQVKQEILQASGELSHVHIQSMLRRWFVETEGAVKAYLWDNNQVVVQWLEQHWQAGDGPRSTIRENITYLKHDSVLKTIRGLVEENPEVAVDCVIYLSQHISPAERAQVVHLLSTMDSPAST
smiles,measurement,setting,value
COc1ccc(F)cc1[C@H](Cn1c(=O)n(C(C)(C)C(N)=O)c(=O)c2c(C)c(-n3nccn3)sc21)OC1CCOCC1 [Compound I-1],IC50,human (hACC2); Table 2a,0.005 to 0.01 µM
same,IC50,"human (hACC2); Table 2b, additional results",0.005 to 0.01 µM
same,IC90,Rhizoctonia solani (Rs); [1],2 µg/mL
same,IC90,Rhizoctonia solani (Rs); [2],10 µg/mL
"COc1ccc(F)cc1[C@H](Cn1c(=O)n(C(C)(C)C(N)=O)c(=O)c2c(C)c(-n3nccn3)sc21)OC(C)C [Compound I-2, (R)-2-(1-(2-(5-fluoro-2-methoxyphenyl)-2-isopropoxyethyl)-5-methyl-2,4-dioxo-6-(2H-1,2,3-triazol-2-yl)-1,4-dihydrothieno[2,3-d]pyrimidin-3(2H)-yl)-2-methylpropanamide]",IC50,human (hACC2); Table 2a,0.001 to 0.005 µM
same,IC50,"human (hACC2); Table 2b, additional results",0.001 to 0.005 µM
same,IC90,Rhizoctonia solani (Rs); [1],0.08 µg/mL
same,IC90,Rhizoctonia solani (Rs); [2],0.08 µg/mL
"CCNC(=O)C(C)(C)n1c(=O)c2c(C)c(-n3nccn3)sc2n(C[C@H](OC(C)C)c2cc(F)ccc2OC)c1=O [Compound I-3, (R)—N-ethyl-2-(1-(2-(5-fluoro-2-methoxyphenyl)-2-isopropoxyethyl)-5-methyl-2,4-dioxo-6-(2H-1,2,3-triazol-2-yl)-1,4-dihydrothieno[2,3-d]pyrimidin-3(2H)-yl)-2-methylpropanamide]",IC50,human (hACC2); Table 2a,0.005 to 0.01 µM
same,IC50,"human (hACC2); Table 2b, additional results",0.005 to 0.01 µM
same,IC90,Rhizoctonia solani (Rs); [3],0.08 µg/mL
same,IC90,Rhizoctonia solani (Rs); [4],0.08 µg/mL
"COc1ccc(F)cc1[C@H](Cn1c(=O)n(C(C)(C)C(=O)NC(C)C)c(=O)c2c(C)c(-n3nccn3)sc21)OC(C)C [Compound I-4, (R)-2-(1-(2-(5-fluoro-2-methoxyphenyl)-2-isopropoxyethyl)-5-methyl-2,4-dioxo-6-(2H-1,2,3-triazol-2-yl)-1,4-dihydrothieno[2,3-d]pyrimidin-3(2H)-yl)-N-isopropyl-2-methylpropanamide]",IC50,human (hACC2); Table 2a,0.005 to 0.01 µM
same,IC50,"human (hACC2); Table 2b, additional results",0.005 to 0.01 µM
same,IC90,Rhizoctonia solani (Rs); [3],0.08 µg/mL
same,IC90,Rhizoctonia solani (Rs); [4],0.08 µg/mL
"COc1ccc(F)cc1[C@H](Cn1c(=O)n(C(C)(C)C(=O)N2CCOCC2)c(=O)c2c(C)c(-n3nccn3)sc21)OC(C)C [Compound I-5, (R)-1-(2-(5-fluoro-2-methoxyphenyl)-2-isopropoxyethyl)-5-methyl-3-(2-methyl-1-morpholino-1-oxopropan-2-yl)-6-(2H-1,2,3-triazol-2-yl)thieno[2,3-d]pyrimidine-2,4(1H,3H)-dione]",IC50,human (hACC2); Table 2a,0.01 to 0.04 µM
same,IC50,"human (hACC2); Table 2b, additional results",0.01 to 0.04 µM
same,IC90,Rhizoctonia solani (Rs); [3],0.4 µg/mL
same,IC90,Rhizoctonia solani (Rs); [4],0.4 µg/mL
"COc1ccc(F)cc1[C@H](Cn1c(=O)n(C(C)(C)C(=O)N2CCCCC2)c(=O)c2c(C)c(-n3nccn3)sc21)OC(C)C [Compound I-6, (R)-1-(2-(5-fluoro-2-methoxyphenyl)-2-isopropoxyethyl)-5-methyl-3-(2-methyl-1-oxo-1-(piperidin-1-yl)propan-2-yl)-6-(2H-1,2,3-triazol-2-yl)thieno[2,3-d]pyrimidine-2,4(1H,3H)-dione]",IC50,human (hACC2); Table 2a,0.01 to 0.04 µM
same,IC50,"human (hACC2); Table 2b, additional results",0.01 to 0.04 µM
same,IC90,Rhizoctonia solani (Rs); [3],0.08 µg/mL
same,IC90,Rhizoctonia solani (Rs); [4],0.08 µg/mL
"COc1ccc(F)cc1[C@H](Cn1c(=O)n(C(C)(C)C(=O)N2CCCC2)c(=O)c2c(C)c(-n3nccn3)sc21)OC(C)C [Compound I-7, (R)-1-(2-(5-fluoro-2-methoxyphenyl)-2-isopropoxyethyl)-5-methyl-3-(2-methyl-1-oxo-1-(pyrrolidin-1-yl)propan-2-yl)-6-(2H-1,2,3-triazol-2-yl)thieno[2,3-d]pyrimidine-2,4(1H,3H)-dione]",IC50,human (hACC2); Table 2a,0.005 to 0.01 µM
same,IC50,"human (hACC2); Table 2b, additional results",0.005 to 0.01 µM
same,IC90,Rhizoctonia solani (Rs); [1],0.08 µg/mL
same,IC90,Rhizoctonia solani (Rs); [2],0.08 µg/mL
"COc1ccc(F)cc1[C@H](Cn1c(=O)n(C(C)(C)C(N)=O)c(=O)c2c(C)c(-n3nccn3)sc21)OCC(C)C [Compound I-8, (R)-2-(1-(2-(5-fluoro-2-methoxyphenyl)-2-isobutoxyethyl)-5-methyl-2,4-dioxo-6-(2H-1,2,3-triazol-2-yl)-1,4-dihydrothieno[2,3-d]pyrimidin-3(2H)-yl)-2-methylpropanamide]",IC50,human (hACC2); Table 2a,0.005 to 0.01 µM
same,IC50,"human (hACC2); Table 2b, additional results",0.005 to 0.01 µM
same,IC90,Rhizoctonia solani (Rs); [1],2 µg/mL
same,IC90,Rhizoctonia solani (Rs); [2],2 µg/mL
"CCNC(=O)C(C)(C)n1c(=O)c2c(C)c(-n3nccn3)sc2n(C[C@H](OCC(C)C)c2cc(F)ccc2OC)c1=O [Compound I-9, (R)—N-ethyl-2-(1-(2-(5-fluoro-2-methoxyphenyl)-2-isobutoxyethyl)-5-methyl-2,4-dioxo-6-(2H-1,2,3-triazol-2-yl)-1,4-dihydrothieno[2,3-d]pyrimidin-3(2H)-yl)-2-methylpropanamide]",IC50,human (hACC2); Table 2a,0.005 to 0.01 µM
same,IC50,"human (hACC2); Table 2b, additional results",0.001 to 0.005 µM
same,IC90,Rhizoctonia solani (Rs); [1],0.4 µg/mL
same,IC90,Rhizoctonia solani (Rs); [2],0.4 µg/mL
"COc1ccc(F)cc1[C@H](Cn1c(=O)n(C(C)(C)C(=O)N2CCCCC2)c(=O)c2c(C)c(-n3nccn3)sc21)OCC(C)C [Compound I-11, (R)-1-(2-(5-fluoro-2-methoxyphenyl)-2-isobutoxyethyl)-5-methyl-3-(2-methyl-1-oxo-1-(piperidin-1-yl)propan-2-yl)-6-(2H-1,2,3-triazol-2-yl)thieno[2,3-d]pyrimidine-2,4(1H,3H)-dione]",IC50,human (hACC2); Table 2a,0.01 to 0.04 µM
same,IC50,"human (hACC2); Table 2b, additional results",0.01 to 0.04 µM
same,IC90,Rhizoctonia solani (Rs); [3],0.4 µg/mL
same,IC90,Rhizoctonia solani (Rs); [4],0.4 µg/mL
"COc1ccc(F)cc1[C@H](Cn1c(=O)n(C(C)(C)C(=O)N2CCCC2)c(=O)c2c(C)c(-n3nccn3)sc21)OCC(C)C [Compound I-12, (R)-1-(2-(5-fluoro-2-methoxyphenyl)-2-isobutoxyethyl)-5-methyl-3-(2-methyl-1-oxo-1-(pyrrolidin-1-yl)propan-2-yl)-6-(2H-1,2,3-triazol-2-yl)thieno[2,3-d]pyrimidine-2,4(1H,3H)-dione]",IC50,human (hACC2); Table 2a,0.01 to 0.04 µM
same,IC50,"human (hACC2); Table 2b, additional results",0.01 to 0.04 µM
same,IC90,Rhizoctonia solani (Rs); [1],0.08 µg/mL
same,IC90,Rhizoctonia solani (Rs); [2],0.08 µg/mL
"COc1ccccc1[C@H](Cn1c(=O)n(C(C)(C)C(N)=O)c(=O)c2c(C)c(-n3nccn3)sc21)OC1CCOCC1 [Compound I-14, (R)-2-(1-(2-(2-methoxyphenyl)-2-((tetrahydro-2H-pyran-4-yl)oxy)ethyl)-5-methyl-2,4-dioxo-6-(2H-1,2,3-triazol-2-yl)-1,4-dihydrothieno[2,3-d]pyrimidin-3(2H)-yl)-2-methylpropanamide]",IC50,human (hACC2); Table 2a,0.001 to 0.005 µM
same,IC50,"human (hACC2); Table 2b, additional results",0.001 to 0.005 µM
same,IC90,Rhizoctonia solani (Rs); [1],10 µg/mL
same,IC90,Rhizoctonia solani (Rs); [2],> 50 µg/mL
"CCNC(=O)C(C)(C)n1c(=O)c2c(C)c(-n3nccn3)sc2n(C[C@H](OC2CCOCC2)c2ccccc2OC)c1=O [Compound I-15, (R)—N-ethyl-2-(1-(2-(2-methoxyphenyl)-2-((tetrahydro-2H-pyran-4-yl)oxy)ethyl)-5-methyl-2,4-dioxo-6-(2H-1,2,3-triazol-2-yl)-1,4-dihydro-thieno[2,3-d]pyrimidin-3(2H)-yl)-2-methylpropanamide]",IC50,human (hACC2); Table 2a,0.001 to 0.005 µM
same,IC50,"human (hACC2); Table 2b, additional results",0.001 to 0.005 µM
same,IC90,Rhizoctonia solani (Rs); [1],10 µg/mL
same,IC90,Rhizoctonia solani (Rs); [2],> 50 µg/mL
"COc1ccccc1[C@H](Cn1c(=O)n(C(C)(C)C(=O)N2CC(O)C2)c(=O)c2c(C)c(-n3nccn3)sc21)OC1CCOCC1 [Compound I-19, (R)-3-(1-(3-hydroxyazetidin-1-yl)-2-methyl-1-oxopropan-2-yl)-1-(2-(2-methoxyphenyl)-2-((tetrahydro-2H-pyran-4-yl)oxy)ethyl)-5-methyl-6-(2H-1,2,3-triazol-2-yl)thieno[2,3-d]pyrimidine-2,4(1H,3H)-dione]",IC50,human (hACC2); Table 2a,0.01 to 0.04 µM
same,IC50,"human (hACC2); Table 2b, additional results",0.01 to 0.04 µM
same,IC90,Rhizoctonia solani (Rs); [3],10 µg/mL
same,IC90,Rhizoctonia solani (Rs); [4],> 50 µg/mL
"COc1ccc(F)cc1[C@H](Cn1c(=O)n(C(C)(C)C(=O)N2CCCCC2)c(=O)c2c(C)c(-n3nccn3)sc21)OC1CCOCC1 [Compound I-24, (R)-1-(2-(5-fluoro-2-methoxyphenyl)-2-((tetrahydro-2H-pyran-4-yl)oxy)ethyl)-5-methyl-3-(2-methyl-1-oxo-1-(piperidin-1-yl)propan-2-yl)-6-(2H-1,2,3-triazol-2-yl)thieno[2,3-d]pyrimidine-2,4(1H,3H)-dione]",IC50,human (hACC2); Table 2a,0.01 to 0.04 µM
same,IC50,"human (hACC2); Table 2b, additional results",0.01 to 0.04 µM
same,IC90,Rhizoctonia solani (Rs); [3],0.08 µg/mL
same,IC90,Rhizoctonia solani (Rs); [4],0.08 µg/mL
"COc1ccc(F)cc1[C@H](Cn1c(=O)n(C(C)(C)C(=O)N2CC(O)C2)c(=O)c2c(C)c(-n3nccn3)sc21)OC1CCOCC1 [Compound I-26, (R)-1-(2-(5-fluoro-2-methoxyphenyl)-2-((tetrahydro-2H-pyran-4-yl)oxy)ethyl)-3-(1-(3-hydroxyazetidin-1-yl)-2-methyl-1-oxopropan-2-yl)-5-methyl-6-(2H-1,2,3-triazol-2-yl)thieno[2,3-d]pyrimidine-2,4(1H,3H)-dione]",IC50,human (hACC2); Table 2a,0.01 to 0.04 µM
same,IC50,"human (hACC2); Table 2b, additional results",0.01 to 0.04 µM
same,IC90,Rhizoctonia solani (Rs); [1],10 µg/mL
same,IC90,Rhizoctonia solani (Rs); [2],> 50 µg/mL
"COc1ccc(F)cc1[C@H](Cn1c(=O)n(C(C)(C)C(=O)NC2CCC2)c(=O)c2c(C)c(-n3nccn3)sc21)OC1CCOCC1 [Compound I-27, (R)—N-cyclobutyl-2-(1-(2-(5-fluoro-2-methoxyphenyl)-2-((tetrahydro-2H-pyran-4-yl)oxy)ethyl)-5-methyl-2,4-dioxo-6-(2H-1,2,3-triazol-2-yl)-1,4-dihydrothieno[2,3-d]pyrimidin-3(2H)-yl)-2-methylpropanamide]",IC50,human (hACC2); Table 2a,0.005 to 0.01 µM
same,IC50,"human (hACC2); Table 2b, additional results",0.005 to 0.01 µM
same,IC90,Rhizoctonia solani (Rs); [1],0.08 µg/mL
same,IC90,Rhizoctonia solani (Rs); [2],0.08 µg/mL
"COc1ccc(F)cc1[C@H](Cn1c(=O)n(C(C)(C)C(=O)NC2CCCCC2)c(=O)c2c(C)c(-n3nccn3)sc21)OC1CCOCC1 [Compound I-28, (R)—N-cyclohexyl-2-(1-(2-(5-fluoro-2-methoxyphenyl)-2-((tetrahydro-2H-pyran-4-yl)oxy)ethyl)-5-methyl-2,4-dioxo-6-(2H-1,2,3-triazol-2-yl)-1,4-dihydrothieno[2,3-d]pyrimidin-3(2H)-yl)-2-methylpropanamide]",IC50,human (hACC2); Table 2a,0.01 to 0.04 µM
same,IC50,"human (hACC2); Table 2b, additional results",0.01 to 0.04 µM
same,IC90,Rhizoctonia solani (Rs); [3],0.4 µg/mL
same,IC90,Rhizoctonia solani (Rs); [4],0.4 µg/mL
